Data published in patent US10072282B2, “Modulators for SIRT6 and assays for screening same” (Cornell University, priority 2010, dated 2018).

What was measured:
[1] = molecular target: Sirt6 (Homo sapiens, UniProt Q8N6T7); assay: Fluorogenic acyl peptide-AMC assay with Sirt6; assay type: biochemical; conditions: AMC released by trypsin, fluorescence
From the text: (§1) FIGS. 6A, 6B. Charts showing the difference between fluorogenic acetyl peptide-AMC substrate (A) and heptyl peptide-AMC substrate (B) detection ability of Sirt6 and PfSir2 activity.
(§2) With respect to the first reaction (deacylation by Sirt6, PfSir2a, or Sirt7), the pH for the reaction can be selected by taking the optimal pH of Sirt6, PfSir2a, or Sirt7 into consideration. The pH is typically adjusted to a pH of 6.0 to 8.5, or more particularly, a pH of 6.8 to 8.5. The reaction buffer preferably provides the above-mentioned pH. For example, Tris-HCl, HEPES-KOH, and other such buffers may be used in the instant method. More specifically, for example, 20 mM Tris-HCl having a pH of 7.4 can be used. Generally, NAD is a co-substrate required for Sirt6, PfSir2a, or Sirt7 functioning, and is typically used at about 0.5 mM concentration. Salts and preservatives are generally also included in the reaction solution. […]
(§3) For sirtuins with robust deacetylase activity, a fluorogenic assay has been used to detect the activity and screen for inhibitors/activators (FIG. 5, top). […] After a sirtuin removes the acetyl group, the AMC can be released by trysin, which produces a fluorescence signal. Thus, the presence of a compound that can change the activity of sirtuin being analyzed can be detected by monitoring the fluoroscence released in the reaction. […]

[2] = molecular target: PfSir2a (Plasmodium falciparum, UniProt Q8IE47); assay: Fluorogenic acyl peptide-AMC assay with PfSir2a; assay type: biochemical; conditions: AMC released by trypsin, fluorescence
From the text: as §1, §2, §3

Chain of Sirt6 (Q8N6T7 whole entry): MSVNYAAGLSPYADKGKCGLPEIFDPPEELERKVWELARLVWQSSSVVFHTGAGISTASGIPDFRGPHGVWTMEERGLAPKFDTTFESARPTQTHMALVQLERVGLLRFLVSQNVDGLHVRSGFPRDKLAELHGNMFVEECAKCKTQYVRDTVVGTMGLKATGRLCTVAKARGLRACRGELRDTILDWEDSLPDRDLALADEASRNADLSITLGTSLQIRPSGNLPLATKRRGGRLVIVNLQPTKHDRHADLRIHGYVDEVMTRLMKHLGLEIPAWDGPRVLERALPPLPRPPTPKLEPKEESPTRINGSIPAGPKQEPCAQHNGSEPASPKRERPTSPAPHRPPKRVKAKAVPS
Chain of PfSir2a (Q8IE47 whole entry): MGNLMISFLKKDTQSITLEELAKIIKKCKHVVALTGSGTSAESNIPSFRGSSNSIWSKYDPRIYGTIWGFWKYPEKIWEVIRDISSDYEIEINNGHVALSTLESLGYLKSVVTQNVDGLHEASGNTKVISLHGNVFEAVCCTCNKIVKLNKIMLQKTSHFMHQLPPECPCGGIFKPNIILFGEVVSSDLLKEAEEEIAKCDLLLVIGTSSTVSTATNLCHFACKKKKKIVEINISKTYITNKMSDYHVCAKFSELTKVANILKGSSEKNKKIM

| Substance | detection of Sirt6 activity with peptide-AMC substrate [1] | detection of PfSir2a activity with peptide-AMC substrate [2] |
| --- | --- | --- |
| ISGASE(acetyl-K)-AMC peptide [acetyl peptide-AMC] | not detectable | not detectable |
| ISGASE(heptanoyl-K)-AMC peptide [heptanoyl peptide-AMC] | can be used to detect the activity of Sirt6 and PfSir2a | can be used to detect the activity of Sirt6 and PfSir2a |
